# Assay results taken from the supplement of paper PMC11061612.
# Assays:
# Assay in all cases: combination Emax (second highest fraction inhibited in the dose matrix, 72 h); higher = more inhibition; extreme values may be limits of the assay
# [1] = test system: CW-2 (Colorectal Carcinoma)
# Outline: (§1)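 After 24 hours at 37°C and 5% CO2 in 1536-well plates, cells in DMEM/F12 or RPMI plus 10% FBS received two-drug dose matrices for 72 hours. Viability came from CellTiter-Glo 2.0 luminescence and was scaled as inhibition, anchored at 0 by vehicle wells and at 1 by blank wells. Combination Emax is taken as the second-highest inhibition in the matrix, and Bliss excess as the observed combination effect less EA + EB − EA·EB, with EA and EB the single-agent effects.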
# [2] = test system: DAN-G (Pancreatic Carcinoma)
# Outline: as §1
# [3] = test system: ESO51 (Esophageal Adenocarcinoma)
# Outline: as §1
# [4] = test system: H9 (T-Cell Non-Hodgkin's Lymphoma)
# Outline: as §1
# [5] = test system: HCC1419 (Breast Carcinoma)
# Outline: as §1
# [6] = test system: KMS-12-BM (Plasma Cell Myeloma)
# Outline: as §1
# [7] = test system: KP-3 (Pancreatic Carcinoma)
# Outline: as §1
# [8] = test system: KU812 (Chronic Myelogenous Leukemia)
# Outline: as §1
# [9] = test system: KY821 (Acute Myeloid Leukemia)
# Outline: as §1
# [10] = test system: KYSE-270 (Esophageal Squamous Cell Carcinoma)
# Outline: as §1
# [11] = test system: MOG-G-CCM (Low Grade Glioma)
# Outline: as §1
# [12] = test system: NCCIT (Other Solid Carcinomas)
# Outline: as §1
# [13] = test system: NCI-H3122 (Lung Adenocarcinoma)
# Outline: as §1
# [14] = test system: NCI-H661 (Non-Small Cell Lung Carcinoma)
# Outline: as §1
# RD (Rhabdomyosarcoma) = test system: RD (Rhabdomyosarcoma)
# Outline: as §1
# [15] = test system: RPMI-8226 (Plasma Cell Myeloma)
# Outline: as §1
# [16] = test system: SK-GT-4 (Esophageal Adenocarcinoma)
# Outline: as §1
# [17] = test system: SNU-398 (Hepatocellular Carcinoma)
# Outline: as §1
# [18] = test system: SU-DHL-5 (B-Cell Non-Hodgkin's Lymphoma)
# Outline: as §1
# [19] = test system: SUP-B15 (B-Lymphoblastic Leukemia)
# Outline: as §1
SMILES,combination Emax [1],combination Emax [2],combination Emax [3],combination Emax [4],combination Emax [5],combination Emax [6],combination Emax [7],combination Emax [8],combination Emax [9],combination Emax [10],combination Emax [11],combination Emax [12],combination Emax [13],combination Emax [14],combination Emax (RD (Rhabdomyosarcoma)),combination Emax [15],combination Emax [16],combination Emax [17],combination Emax [18],combination Emax [19]
"C=CCn1c(=O)c2cnc(Nc3ccc(N4CCN(C)CC4)cc3)nc2n1-c1cccc(C(C)(C)O)n1 [AZD1775] + O=C(c1cc(Cc2n[nH]c(=O)c3ccccc23)ccc1F)N1CCN(C(=O)C2CC2)CC1 [Olaparib] (first compound max 1 µM, partner max 10 µM)",0.392,0.646,0.455,0.868,0.118,0.905,0.28,0.816,1,0.7,0.456,0.759,0.736,0.512,0.461,0.502,0.363,0.5,1,0.973
"CC1(C)CCC(CN2CCN(c3ccc(C(=O)NS(=O)(=O)c4ccc(NCC5CCOCC5)c([N+](=O)[O-])c4)c(Oc4cnc5[nH]ccc5c4)c3)CC2)=C(c2ccc(Cl)cc2)C1 [Venetoclax] + COc1cc(Nc2ncc3c(n2)-c2ccc(Cl)cc2C(c2c(F)cccc2OC)=NC3)ccc1C(=O)O [Alisertib] (first compound max 1 µM, 7x7, partner max 10 µM)",0.16,0.425,0.213,0.802,0.15,1,0.103,0.838,1,0.627,0.806,0.51,0.336,0.26,0.543,0.685,0.444,0.498,0.803,1
"COc1cccc(OCCCN)c1-c1cc(Nc2cnc(C#N)cn2)n[nH]1 [Prexasertib] + O=C(c1cc(Cc2n[nH]c(=O)c3ccccc23)ccc1F)N1CCN(C(=O)C2CC2)CC1 [Olaparib] (first compound max 1 µM, 7x7, partner max 10 µM)",0.301,0.801,0.555,1,0.266,1,0.469,0.796,1,0.964,0.673,0.621,0.747,0.797,0.58,0.999,0.593,0.383,1,0.98
"COc1cccc(OCCCN)c1-c1cc(Nc2cnc(C#N)cn2)n[nH]1 [Prexasertib] + C[C@@H]1COCCN1C2=NC(=NC(=C2)C3(CC3)[S@](=N)(=O)C)C4=C5C=CNC5=NC=C4 [AZD6738] (first compound max 1 µM, 7x7, partner max 10 µM)",0.614,0.769,0.779,1,0.449,1,0.456,0.756,1,0.999,0.644,0.797,0.794,0.744,0.539,1,0.713,0.437,1,0.962
"COc1cccc(OCCCN)c1-c1cc(Nc2cnc(C#N)cn2)n[nH]1 [Prexasertib] + CCc1c2c(nc3ccc(O)cc13)-c1cc3c(c(=O)n1C2)COC(=O)[C@]3(O)CC [SN-38] (first compound max 1 µM, 7x7, partner max 0.3 µM)",0.612,0.933,0.879,1,0.402,1,0.57,0.794,1,1,0.894,0.85,0.933,0.889,0.958,1,0.743,0.725,1,1
"COc1nnc2ccc(N3CCC(c4ccc(OCCN5CCN(C)C(=O)[C@H]5C)cc4)CC3)nn12 [AZD5153] + C=CCn1c(=O)c2cnc(Nc3ccc(N4CCN(C)CC4)cc3)nc2n1-c1cccc(C(C)(C)O)n1 [AZD1775] (first compound max 1 µM, partner max 1 µM)",0.605,0.681,0.723,1,0.346,1,0.4,0.931,1,0.656,0.615,0.939,0.707,0.731,0.774,0.845,0.6,0.818,1,0.962
